Reference: patent US20230233569A1 (Revolution Medicines, Inc., priority 2020, published 2023)
pIC50: −log10 of the molar value.

Experiments:
Assay in all cases: Disruption of BRAF RBD interaction with Ras (FRET / MOA assay, with Cyclophilin A)
Format in all cases: biochemical
[1] = molecular target: KRAS G12C (Homo sapiens, UniProt P01116+P62937, G12C); details: KRAS G12C; read-out: KRAS G12C FRET data IC50
Outline: (§1)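 Compound-driven ternary complex formation between nucleotide-loaded K-Ras and Cyclophilin A was measured as loss of BRAF RBD binding. Compounds (10-point 3-fold series, top 30 μM final) were incubated 3 h at 25 °C, then anti-His Eu-W1024 (10 nM) and anti-GST allophycocyanin (50 nM) added for 1.5 h. IC50 was taken from the TR-FRET ratio decrease versus DMSO.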

[2] = molecular target: KRAS G12D (Homo sapiens, UniProt P01116+P62937, G12D); details: read-out: KRAS G12D FRET data, IC50
KRAS G12D, sequence (P01116 1-169 isoform P01116-2 G12D limits assumed): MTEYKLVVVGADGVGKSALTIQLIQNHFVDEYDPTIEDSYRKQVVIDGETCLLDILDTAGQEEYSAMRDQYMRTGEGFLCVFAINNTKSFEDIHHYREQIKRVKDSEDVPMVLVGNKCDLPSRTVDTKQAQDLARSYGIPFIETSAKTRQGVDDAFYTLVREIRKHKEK
KRAS G12D, sequence (P62937 whole entry): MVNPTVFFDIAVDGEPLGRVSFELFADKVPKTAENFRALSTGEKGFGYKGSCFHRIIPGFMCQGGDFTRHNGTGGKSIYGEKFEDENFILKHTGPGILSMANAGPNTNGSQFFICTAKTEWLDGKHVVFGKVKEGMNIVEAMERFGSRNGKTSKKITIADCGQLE
Outline: as §1

[3] = molecular target: KRAS G12S (Homo sapiens, UniProt P01116+P62937, G12S); details: read-out: KRAS G12S FRET data, IC50
KRAS G12S, sequence (P01116 1-169 isoform P01116-2 G12S limits assumed): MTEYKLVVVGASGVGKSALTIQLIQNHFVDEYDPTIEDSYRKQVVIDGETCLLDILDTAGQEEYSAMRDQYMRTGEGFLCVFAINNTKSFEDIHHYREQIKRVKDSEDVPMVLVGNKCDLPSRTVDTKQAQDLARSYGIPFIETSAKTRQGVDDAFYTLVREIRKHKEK
KRAS G12S, sequence (P62937 whole entry): as the sequence (P62937 whole entry) above
Outline: as §1

[4] = molecular target: KRAS G12V (Homo sapiens, UniProt P01116+P62937, G12V); details: KRAS G12V; read-out: KRAS G12V FRET data IC50
KRAS G12V, sequence (P01116 1-169 isoform P01116-2 G12V limits assumed): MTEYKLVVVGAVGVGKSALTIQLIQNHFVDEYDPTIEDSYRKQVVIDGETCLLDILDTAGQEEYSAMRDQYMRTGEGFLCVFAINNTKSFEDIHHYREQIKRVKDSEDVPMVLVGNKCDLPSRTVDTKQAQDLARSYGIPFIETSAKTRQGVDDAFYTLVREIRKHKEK
KRAS G12V, sequence (P62937 whole entry): as the sequence (P62937 whole entry) above
Outline: as §1

[5] = molecular target: KRAS G13C (Homo sapiens, UniProt P01116+P62937, G13C); details: KRAS G13C; read-out: KRAS G13C FRET data IC50
KRAS G13C, sequence (P01116 1-169 isoform P01116-2 G13C): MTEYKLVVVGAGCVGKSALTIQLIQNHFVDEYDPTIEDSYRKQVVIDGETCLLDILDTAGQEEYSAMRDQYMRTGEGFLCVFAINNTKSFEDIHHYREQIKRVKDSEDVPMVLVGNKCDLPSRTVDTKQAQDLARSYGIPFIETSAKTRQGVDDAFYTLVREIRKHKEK
KRAS G13C, sequence (P62937 whole entry): as the sequence (P62937 whole entry) above
Outline: as §1

[6] = molecular target: KRAS WT (Homo sapiens, UniProt P01116+P62937); details: KRAS WT; read-out: KRAS WT FRET data IC50
KRAS WT, sequence (P01116 1-169 isoform P01116-2 limits assumed): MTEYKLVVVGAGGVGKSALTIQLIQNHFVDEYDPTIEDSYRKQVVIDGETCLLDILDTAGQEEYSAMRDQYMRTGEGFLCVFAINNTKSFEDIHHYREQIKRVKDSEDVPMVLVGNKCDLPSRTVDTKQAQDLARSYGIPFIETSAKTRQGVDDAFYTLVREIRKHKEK
KRAS WT, sequence (P62937 whole entry): as the sequence (P62937 whole entry) above
Outline: as §1

[7] = molecular target: KRAS Q61H (Homo sapiens, UniProt P01116+P62937, Q61H); details: KRAS Q61H; read-out: KRAS Q61H FRET data IC50
KRAS Q61H, sequence (P01116 1-169 isoform P01116-2 Q61H limits assumed): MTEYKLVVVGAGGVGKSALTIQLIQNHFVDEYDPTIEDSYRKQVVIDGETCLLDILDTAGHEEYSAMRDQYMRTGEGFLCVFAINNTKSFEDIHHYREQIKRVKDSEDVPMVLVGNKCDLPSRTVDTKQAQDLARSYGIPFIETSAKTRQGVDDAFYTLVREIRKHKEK
KRAS Q61H, sequence (P62937 whole entry, the tested form may be a part): as the sequence (P62937 whole entry) above
Excerpt: (§2) Disruption of B-Raf Ras-Binding Domain (BRAF^RBD) Interaction with K-Ras by Compounds of the Invention (Also Called a FRET Assay or an MOA Assay)
(§3) Note—The following protocol describes a procedure for monitoring disruption of K-Ras G12C (GMP-PNP) binding to BRAF^RBD by a compound of the invention. This protocol may also be executed substituting other Ras proteins or nucleotides.
(§4) The purpose of this biochemical assay was to measure the ability of test compounds to facilitate ternary complex formation between a nucleotide-loaded K-Ras isoform and Cyclophilin A; the resulting ternary complex disrupts binding to a BRAF^RBD construct, inhibiting K-Ras signaling through a RAF effector. Data is reported as IC50 values.
(§5) In assay buffer containing 25 mM HEPES pH 7.3, 0.002% Tween20, 0.1% BSA, 100 mM NaCl and 5 mM MgCl2, tagless Cyclophilin A, His6-K-Ras-GMPPNP, and GST-BRAF^RBD were combined in a 384-well assay plate at final concentrations of 25 μM, 12.5 nM and 50 nM, respectively. Compound was present in plate wells as a 10-point 3-fold dilution series starting at a final concentration of 30 μM. After incubation at 25° C. for 3 hours, a mixture of Anti-His Eu-W1024 and anti-GST allophycocyanin was then added to assay sample wells at final concentrations of 10 nM and 50 nM, respectively, and the reaction incubated for an additional 1.5 hours. […] Compounds that facilitate disruption of a K-Ras:RAF complex were identified as those eliciting a decrease in the TR-FRET ratio relative to DMSO control wells.
as §4, with “BRAF^RBDD” for “BRAF^RBD”

[8] = molecular target: NRAS Q61K (Homo sapiens, UniProt P01111+P62937, Q61K); details: NRAS Q61K; read-out: NRAS Q61K FRET data IC50
NRAS Q61K, sequence (P01111 whole entry Q61K): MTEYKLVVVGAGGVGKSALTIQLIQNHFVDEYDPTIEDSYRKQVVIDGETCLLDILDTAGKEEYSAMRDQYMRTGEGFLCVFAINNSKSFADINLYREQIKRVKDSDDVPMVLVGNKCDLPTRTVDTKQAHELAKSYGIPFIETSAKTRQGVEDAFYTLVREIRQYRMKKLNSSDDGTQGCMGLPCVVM
NRAS Q61K, sequence (P62937 whole entry): as the sequence (P62937 whole entry) above
Excerpt: as §2, §3, §4, §5
as §4, with “BRAF^RBDD” for “BRAF^RBD”

[9] = molecular target: NRAS Q61R (Homo sapiens, UniProt P01111+P62937, Q61R); details: NRAS Q61R; read-out: NRAS Q61R FRET data IC50
NRAS Q61R, sequence (P01111 whole entry Q61R): as the sequence (P01111 whole entry Q61K) above, with K61R counted along it
NRAS Q61R, sequence (P62937 whole entry): as the sequence (P62937 whole entry) above
Excerpt: as §2, §3, §4, §5
as §4, with “BRAF^RBDD” for “BRAF^RBD”

[10] = molecular target: KRAS G13D (Homo sapiens, UniProt P01116+P62937, G13D); details: KRAS G13D; read-out: KRAS G13D FRET data IC50
KRAS G13D, sequence (P01116 1-169 isoform P01116-2 G13D limits assumed): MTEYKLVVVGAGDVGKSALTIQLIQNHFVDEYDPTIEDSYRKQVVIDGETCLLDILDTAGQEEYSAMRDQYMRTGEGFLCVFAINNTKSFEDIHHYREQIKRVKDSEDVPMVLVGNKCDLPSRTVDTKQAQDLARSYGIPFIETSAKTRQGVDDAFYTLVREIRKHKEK
KRAS G13D, sequence (P62937 whole entry): as the sequence (P62937 whole entry) above
Outline: as §1

[11] = molecular target: NRAS G12C (Homo sapiens, UniProt P01111+P62937, G12C); details: NRAS G12C; read-out: NRAS G12C FRET data IC50
NRAS G12C, sequence (P01111 whole entry G12C): as the sequence (P01111 whole entry Q61K) above, with G12C, K61Q counted along it
NRAS G12C, sequence (P62937 whole entry): as the sequence (P62937 whole entry) above

KRAS G12C, sequence (P01116 1-169 isoform P01116-2 G12C): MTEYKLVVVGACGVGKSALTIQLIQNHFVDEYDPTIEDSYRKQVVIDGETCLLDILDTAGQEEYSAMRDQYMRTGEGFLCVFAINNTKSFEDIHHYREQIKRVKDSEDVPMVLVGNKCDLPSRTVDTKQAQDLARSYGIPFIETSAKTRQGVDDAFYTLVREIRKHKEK
KRAS G12C, sequence (P62937 whole entry): as the sequence (P62937 whole entry) above

Compound	pIC50 [1]	pIC50 [5]	pIC50 [7]	pIC50 [9]	pIC50 [4]	further results
C=CC(=O)N1CC[C@H](C(=O)N(C)[C@H](C(=O)N[C@H]2Cc3cc(O)cc(c3)-c3ccc4c(c3)c(c(-c3cccnc3)n4CC)CC(C)(C)COC(=O)[C@@H]3CCCN(N3)C2=O)C(C)C)C1 [Example A045]	6.00 to 7.00	5.00 to 6.00	6.00 to 7.00	< 5.00	5.00 to 6.00	pIC50 [2]: < 5.00; pIC50 [3]: 5.00 to 6.00; pIC50 [6]: 5.00 to 6.00; pIC50 [8]: 5.00 to 6.00
C=CC(=O)N1CC[C@H](C(=O)N(C)[C@H](C(=O)N[C@H]2Cc3cc(O)cc(c3)-c3ccc4c(c3)c(c(-c3cccnc3)n4C(C)(C)C#N)CC(C)(C)COC(=O)[C@@H]3CCCN(N3)C2=O)C(C)C)C1 [Example A074]	–	6.00 to 7.00	6.00 to 7.00	5.00 to 6.00	–	–
CCn1c(-c2cccnc2[C@H](C)OC)c2c3cc(ccc31)-c1csc(n1)C[C@H](NC(=O)[C@H](C(C)C)N(C)C(=O)[C@H]1[C@@H]3CNC[C@@H]31)C(=O)N1CCC[C@H](N1)C(=O)OCC(C)(C)C2 (atropisomer, axis not shown) [Example A448]	–	–	5.00 to 6.00	–	< 5.00	–
CCn1c(-c2cccnc2[C@H](C)OC)c2c3nc(ccc31)-c1csc(n1)C[C@H](NC(=O)[C@H](C(C)C)N(C)C(=O)N1CC(OC)C1)C(=O)N1CCC[C@H](N1)C(=O)OCC(C)(C)C2 (atropisomer, axis not shown) [Example A613]	–	–	5.00 to 6.00	–	–	–

Now from value to compound, other results behind:

pIC50 [1]	pIC50 [5]	pIC50 [7]	pIC50 [9]	Compound	pIC50 [4]	further results
6.00 to 7.00	–	6.00 to 7.00	–	CCn1c(-c2cccnc2[C@H](C)OC)c2c3cc(ccc31)-c1cccc(c1)C[C@H](NC(=O)[C@H](C(C)C)N(C)C(=O)N1CCC13CN(C(=O)C#CC(C)(C)N(C)C)C3)C(=O)N1CCC[C@H](N1)C(=O)OCC(C)(C)C2 (atropisomer, axis not shown) [Example A717]	–	pIC50 [10]: 5.00 to 6.00; pIC50 [11]: 6.00 to 7.00
–	–	> 8.00	–	CCn1c(-c2cccnc2[C@H](C)OC)c2c3cc(ccc31)-c1cc(O)cc(c1)C[C@H](NC(=O)[C@H](C(C)C)N(C)C(=O)[C@@H]1OCC[C@@H]1c1ccccc1)C(=O)N1CCC[C@H](N1)C(=O)OCC(C)(C)C2 [Example A415]	–	–
